{"source": "paper PMC3006207", "about": "“Phosphorylation-Dependent Protein Interaction with Trypanosoma brucei 14-3-3 Proteins that Display Atypical Target Recognition” (PLoS ONE, 2010)", "molecules": {"B1": {"name": "V5-tagged PP2c: N-terminally V5-tagged putative T. brucei protein phosphatase 2c (Tb927.7.4020) (protein)", "chain": "MYTSVRKPPLSTAKLSEKTDAAGKGNLNGVAESPTSRDGGIGSSMPYVARKPNSGDGQGRPGEVQRAGQVTYQTTNALFTGSTVPGKTKDVSTAKSSGGGDHLNNGDRPPLVGDNNEVSSPRTIKMNSSPPRRYFHRGAINCNSSENVAAVLGGSTLISGERVGSGSGYPRRVFSGPPSTRMLNQGGEEPAQKPQPPGSSRSKSGIRQLQFALNGNSSQRLLPVPPRQLCPSNPARRGGGAATVTPRCSDARRQKQDSTDPFDMTQVLNGVGTQLGLPSYCPGAESSQGSNRLRGSKPPSPSLLPLASLRSQQMPSTAGVPAPRSLSESQQLSINPSGVFGCATDCKNGLGYDFRVVASTGKSFNLPIKLTAGVGCVQGLRPTMEDEHFIRLQATTAVGQPVSLLGILDGHCGRRVAELAAKHVPDNFIAHPALGENNALAFVESIIQADRAIFHSIGKGSGGVGLSAGFGGSGGSTLIAAAVHGRMLYVACLGDARAVLYDGNTTIPMSEDHKPLNKKEHTRILQCGGFVQLGRVCGVLAVSRALGDYEFKFNGNRFISNRELMVSNVADVRQINLTDSSKFLLLACDGLWDAVQNEEATQFVRDFLSYTPDVGSSPEATKRAINNCCQKLAEFAVSRGSTDNVSVMLLFFHNVADVVASFDRASDATTSRATVTSPVSPRLFSASRGVNAGFTGMESRLAGISGGSSSGAFGGSSGAEGSSVRGAGRTKVDRGASWLTRSRSLW", "modifications": "left off: V5, N-terminal, kept"}}, "key": {"[1]": {"system": "heterodimeric T. brucei 14-3-3I+II", "test": "NC-filter binding assay, heterodimeric T. brucei 14-3-3", "set-up": "species or system Trypanosoma brucei", "settings": "biotinylated peptide + streptavidine on nitrocellulose filter; GST-14-3-3 detected with α-GST antibodies", "method": "(§1) Five µl of 1 mM biotinylated peptides, purchased from Scrum (Japan) were mixed with 15 µl of streptavidine (1 mg/ml) in the presence of 0.1% Tween20, spotted on NC-filters and dried. Filters were washed with TTBS, blocked with Protein-Free Blocking Buffer (Pierce), and then incubated with GST-14-3-3 proteins in TTBS containing 20% Protein-Free Blocking Buffer and 1 mM DTT. The filters were extensively washed four times with TTBS, and detected with anti-GST antibodies."}, "human 14-3-3ζ": {"system": "human 14-3-3ζ", "test": "NC-filter binding assay, human 14-3-3ζ", "method": "as §1"}, "GST-I K77E +II K56E": {"system": "GST-I K77E +II K56E", "test": "NC-filter binding assay, mutant heterodimer", "set-up": "species or system Trypanosoma brucei", "method": "I K77E: 5′-[…]-3′, 5′-[…]-3′; and II K56E: 5′-[…]-3′, 5′-[…]-3′. The sequences were confirmed.\nas §1"}, "T. brucei 14-3-3I": {"system": "T. brucei 14-3-3I", "test": "Surface plasmon resonance (BIAcore), phosphopeptide vs 14-3-3I", "assay_type": "binding, Trypanosoma brucei", "settings": "200 nM GST-14-3-3I; peptide 296 RU on SA5 chip; HBS-EP buffer", "method": "(§2) The surface plasmon resonance measurement was carried out using BIAcore 2000. A resonance unit value of 220 of biotinylated phosphopeptide pSRaf 259 (biotin-MAGGGRQRSTpSTPN) (mode 1 peptide) was coupled to a streptavidin-coated sensor chip (SA5, BIAcore). In the next step, 200 nM each of purified GST-14-3-3I, GST-14-3-3II, and GST–14-3-3τ, or 500 nM each of MBP-14-3-3I, MBP-14-3-3II, and MBP-14-3-3τ in HBS-EP buffer (BIAcore) was injected at a flow rate of 20 µl/min. A resonance unit value of 296 of biotinylated mode 2 peptide (biotin-MAGGGRLYHpSLP) was also coupled to SA5 and 200 nM each of GST-14-3-3I, GST-14-3-3II and GST-14-3-3τ in HBS-EP buffer, and was injected in the same manner."}, "T. brucei 14-3-3II": {"system": "T. brucei 14-3-3II", "test": "Surface plasmon resonance (BIAcore), phosphopeptide vs 14-3-3II", "assay_type": "binding, Trypanosoma brucei", "settings": "200 nM GST-14-3-3II; peptide 296 RU on SA5 chip; HBS-EP buffer", "method": "as §2"}, "human 14-3-3τ": {"target": "T1, human 14-3-3τ (Homo sapiens, UniProt P27348)", "T1 construct": "made in house", "T1 sequence (P27348 1-245)": "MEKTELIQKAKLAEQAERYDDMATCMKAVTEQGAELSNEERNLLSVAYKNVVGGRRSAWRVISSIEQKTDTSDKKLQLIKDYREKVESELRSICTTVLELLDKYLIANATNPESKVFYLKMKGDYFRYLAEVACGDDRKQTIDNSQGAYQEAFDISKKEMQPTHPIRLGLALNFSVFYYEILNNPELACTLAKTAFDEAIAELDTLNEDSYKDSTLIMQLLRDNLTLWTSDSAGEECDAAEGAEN", "test": "Surface plasmon resonance (BIAcore), phosphopeptide vs 14-3-3τ", "assay_type": "binding", "settings": "200 nM GST-14-3-3τ; peptide 296 RU on SA5 chip; HBS-EP buffer", "method": "as §2"}, "T. brucei GST-II +I": {"system": "T. brucei GST-II +I", "test": "Far-Western blot of immunoprecipitated V5-tagged proteins, probe GST-II +I", "assay_type": "binding, Trypanosoma brucei", "settings": "protein expressed in HEK293T cells, immunoprecipitated with anti-V5", "description": "(§3) We first examined whether a putative protein phosphatase 2c (PP2c) in the list interacts with T. brucei 14-3-3 proteins, since the phenotype of knockdown of 14-3-3I and/or II resembled that of okadaic acid, a potent serine/threonine phosphatase inhibitor, -treated T. brucei cells and PP2c has a putative mode 3 motif. The N-terminally V5-tagged PP2c protein was expressed in human HEK293T cells and purified by immunoprecipitation using anti-V5 monoclonal antibody (Ab). Far-WB probing with GST-14-3-3 proteins was used to detect the direct interaction. We have recently identified the heterodimeric form as the major form of T. brucei 14-3-3 proteins (unpublished data) and thus, recombinant heterodimeric GST-II +I was used as a probe. […] We further confirmed that the binding was mediated by intact mode 3 motif (Figure 2B).\n(§4) Figure 2 Interaction of T. brucei PP2c with T. brucei and human 14-3-3 proteins. (A) and (B) Mammalian expression vectors pCR3 N-V5-PP2c, –PP2c S744A or -C-terminal mutants of PP2c were transiently transfected to HEK293T cells. […] The filters were then incubated with indicated GST-14-3-3 proteins and detected with α-GST antibodies. […]\n(§5) Figure 3 p31-SAP binds to T. brucei 14-3-3 proteins in vivo (PCF cells). […] Immunoprecipitated proteins were analyzed by Far-WB with GST-II + I as a probe (upper panel). […]"}, "human GST-14-3-3ζ": {"system": "human GST-14-3-3ζ", "test": "Far-Western blot of immunoprecipitated V5-tagged proteins, probe GST-14-3-3ζ", "assay_type": "binding", "settings": "protein expressed in HEK293T cells, immunoprecipitated with anti-V5", "description": "as §3\nas §4, with “cells. The cell lysates were subjected to immunoprecipitation with α-V5 Ab followed by far-Western blot analyses (Far-WB) using indicated probes (upper panel). Immunoprecipitated proteins were reprobed with α-V5 Ab (lower panel).” for “cells.”"}, "[2]": {"system": "endogenous 14-3-3I and II", "test": "Co-immunoprecipitation with α-V5 Ab in T. brucei PCF cells", "assay_type": "cell-based, Trypanosoma brucei", "settings": "Tet-inducible T. brucei PCF clones; Western blot with mixture of α-I and α-II Ab", "description": "Figure 2 Interaction of T. brucei PP2c with T. brucei and human 14-3-3 proteins. (A) and (B) Mammalian expression vectors pCR3 N-V5-PP2c, –PP2c S744A or -C-terminal mutants of PP2c were transiently transfected to HEK293T cells. The cell lysates were subjected to immunoprecipitation with α-V5 Ab followed by far-Western blot analyses (Far-WB) using indicated probes (upper panel). Immunoprecipitated proteins were reprobed with α-V5 Ab (lower panel). (C) Modes 1-3 phosphopeptides summarized in Table 1 have far less affinity to T. brucei 14-3-3 than human 14-3-3ζ proteins. Indicated biotinylated phosphopeptides were mixed with streptavidine and spotted to nitrocellulose filters and dried. The filters were then incubated with indicated GST-14-3-3 proteins and detected with α-GST antibodies. (D) Tet-inducible T. brucei expression vector, pLew82 T7bsr-N-V5-PP2c was transfected and clones were isolated with blasticidin selection. Tet-uninduced (Tet−) or –induced (Tet +) cell lysates of the clone were subjected to immunoprecipitation followed by Western blotting using a mixture of α-I and II Ab (lower panel), and horseradish peroxidase (HRP)-labeled α-V5 Ab (upper panel).\nas §5"}}}
{"molecule": "MGGGHVSGLKRRRpSV [synthetic mode 3 phosphopeptide derived from p31-SAP]", "values": [{"measurement": "interaction with spotted phosphopeptide", "setting": "[1]", "value": "clearly detected"}, {"measurement": "affinity to p31-SAP derived phosphopeptide, human 14-3-3ζ vs T. brucei 14-3-3", "setting": "human 14-3-3ζ; NC-filter, relative to T. brucei 14-3-3", "value": "slightly higher affinity to the p31-SAP derived phosphopeptide than T. brucei 14-3-3"}, {"measurement": "interaction with spotted phosphopeptide", "setting": "human 14-3-3ζ; biotinylated peptide + streptavidine on nitrocellulose filter, GST-14-3-3ζ detected with α-GST antibodies", "value": "interacts with both phosphopeptides but with the preferential binding to the mode 3 peptide derived from p31-SAP"}, {"measurement": "binding of mutant 14-3-3 to p31-SAP derived peptide", "setting": "GST-I K77E +II K56E", "value": "prevent the binding to the p31-SAP derived peptide"}]}
{"molecule": "biotin-MAGGGRLYHpSLP [mode 2 phosphopeptide, biotinylated mode 2 peptide (biotin-…pSLP)]", "values": [{"measurement": "binding pattern of the sensorgram, mode 2", "setting": "T. brucei 14-3-3I", "value": "neither GST-14-3-3I nor GST–14-3-3II showed any binding"}, {"measurement": "binding pattern of the sensorgram, mode 2", "setting": "T. brucei 14-3-3II", "value": "neither GST-14-3-3I nor GST–14-3-3II showed any binding"}, {"measurement": "binding pattern of the sensorgram, mode 2", "setting": "human 14-3-3τ", "value": "bound to the mode 2 phosphopeptide"}]}
{"molecule": "B1", "values": [{"measurement": "direct binding by Far-WB", "setting": "T. brucei GST-II +I", "value": "to T. brucei GST-II +I (heterodimerized recombinant proteins) with lower affinity"}, {"measurement": "direct binding by Far-WB", "setting": "human GST-14-3-3ζ", "value": "directly bound to GST-14-3-3ζ with high affinity"}, {"measurement": "co-immunoprecipitation with 14-3-3I and II", "setting": "[2]", "value": "failed to show the interaction of 14-3-3 with PP2c"}]}
